Series [1] can be described thus: Behaviour of elagolix sodium upon moisture contact (hygroscopicity, deliquescence). The series is classed as physicochemical. The settings on record: no further conditions given. From the text: Said properties require special care and precautionary measures such as a controlled atmosphere during pharmaceutical processing, which renders manufacturing cumbersome and expensive. […] Such formulations may negatively influence patients' compliance, in particular for elderly people having troubles swallowing.
As used herein the term “deliquescent” means the property of a solid form of a compound to readily absorb moisture form the surrounding atmosphere until it deliquesces and forms a solution upon storage for 14 days at 40° C., atmospheric pressure and 75% relative humidity.

A short description of series [2]: Accelerated stress test at 40° C./75% RH (physical stability by powder X-ray diffraction and visual control of consistency). The series is classed as physicochemical. Here is the method: Powder X-ray diffraction was performed with a PANalytical X'Pert PRO diffractometer equipped with a theta/theta coupled goniometer in transmission geometry, Cu-Kalpha1,2 radiation (wavelength 0.15419 nm) with a focusing mirror and a solid state PIXcel detector. Diffractograms were recorded at a tube voltage of 45 kV and a tube current of 40 mA, applying a stepsize of 0.013° 2-Theta with 40 s per step (255 channels) in the angular range of 2° to 40° 2-Theta at ambient conditions.
Example 2: Accelerated Stress Test at 40° C./75% RH With Solid Dispersions Comprising Amorphous Elagolix Sodium and at Least One Silicon-Based Inorganic Compound in a 1:1 Weight Ratio vs. Neat Elagolix Sodium
The physical stability against moisture and temperature stress has been tested for different solid dispersions comprising amorphous elagolix sodium and at least one silicon-based inorganic compound and for neat amorphous elagolix. For this purpose, the solid dispersions were stored open at accelerated stress conditions of 40° C. and 75% RH for 1, 3 and 6 weeks respectively. The physical stability has been investigated by means of powder X-ray diffraction and the consistency of the samples was visually controlled.

In the case of `COc1cccc(-c2c(C)n(Cc3c(F)cccc3C(F)(F)F)c(=O)n(C[C@H](NCCCC(=O)O)c3ccccc3)c2=O)c1F` [elagolix Na, 4-[[(1R)-2-[5-(2-fluoro-3-methoxyphenyl)-3-[[2-fluoro-6-(trifluoromethyl)phenyl]methyl]-3,6-dihydro-4-methyl-2,6-dioxo-1(2H)-pyrimidinyl]-1-phenylethyl]amino]butanoic acid], the “hygroscopicity / deliquescence upon moisture contact” value in series [1] (listed as elagolix sodium) was “highly hygroscopic”; in series [1] (listed as neat amorphous elagolix sodium) it was “deliquesces fairly quickly”. For the same compound, the “consistency / deliquescence during the stress test” value in series [2] (accelerated stress conditions of 40° C. and 75% RH, up to 6 weeks) was “deliquesced fairly quickly”. For the same compound, the Initial sample result in series [2] (solid state and consistency before storage, PXRD and visual control) was “amorphous solid”. Besides, the “1 week at 40° C./75% RH” value in series [2] (stored open, 1 week, 40° C., 75% RH, PXRD and visual control) was “deliquescence”.

(Values after patent publication US10966979B2 (Sandoz AG, priority 2017, dated 2021).)
